Results: patent US9855230B2 (ViiV Healthcare UK (No. 5) Limited, priority 2014, dated 2018)
Read-outs that look alike come from different tables or passages of the source.

Columns and labels:
[1] = tested on: recombinant NL4-3 virus (nef section replaced with Renilla luciferase gene) in MT-2 cells; experiment: whole plant or invertebrate; format: cell-based, HIV; settings: NL43, luciferase activity in MT-2 cells infected 4-5 days with recombinant NL4-3 virus
Excerpt: A recombinant NL4-3 proviral clone, in which a section of the nef gene was replaced with the Renilla luciferase gene, was used to make the reference virus used in these studies.
Supernatent was harvested after 2-3 days and the amount of virus present was titered in MT-2 cells using luciferase enzyme activity as a marker by measuring luciferase enzyme activity. Luciferase was quantitated using the EnduRen Live Cell Substrate from Promega (Madison, Wis.). Antiviral activities of compounds toward the recombinant virus were quantified by measuring luciferase activity in MT-2 cells infected for 4-5 days with the recombinant virus in the presence of serial dilutions of the compound.

[2] = Compound cytotoxicity (CC50), XTT-based colorimetric assay; format: cell-based; settings: human; uninfected MT2 cells, day 4, XTT assay
Protocol: Compound cytotoxicity and the corresponding CC50 values were determined using the same protocol as described in the antiviral assay except that uninfected cells were used. Cytotoxicity was assessed on day 4 in uninfected MT2 cells by using a XTT (2,3-bis[2-Methoxy-4-nitro-5-sulfophenyl]-2H-tetrazolium-5-carboxyanilide inner salt)-based colorimetric assay (Sigma-Aldrich, St Louis, Mo.).

Work on COC(=O)Nc1ccc(-n2ccnc2[C@H](Cc2ccccc2)NC(=O)NS(=O)(=O)Cc2cccc(Cl)c2)cc1 [Example 48, (S)-methyl (4-(2-(1-(3-((3-chlorobenzyl)sulfonyl)ureido)-2-phenylethyl)-1H-imidazol-1-yl)phenyl)carbamate] yielded an EC50 ([1]; read-out: Activity) of less than 100 nM, an EC50 ([1]; read-out: EC50) of 70 nM and a CC50 at 4 day [2] greater than 100000 nM.
COC(=O)Nc1ccc(-n2ccnc2[C@H](Cc2ccccc2)NC(=O)NS(=O)(=O)c2c(F)cccc2F)cc1 [Example 50, (S)-methyl (4-(2-(1-(3-((2,6-difluorophenyl)sulfonyl)ureido)-2-phenylethyl)-1H-imidazol-1-yl)phenyl)carbamate] showed an EC50 ([1]; read-out: Activity) of 100 to 1000 nM and a CC50 at 4 day [2] greater than 100000 nM.
COC(=O)Nc1ccc(-n2ccnc2[C@H](Cc2ccccc2)NC(=O)NS(=O)(=O)c2cccc(Cl)c2Cl)cc1 [Example 51, (S)-methyl (4-(2-(1-(3-((2,3-dichlorophenyl)sulfonyl)ureido)-2-phenylethyl)-1H-imidazol-1-yl)phenyl)carbamate] gave an EC50 ([1]; read-out: Activity) of 100 to 1000 nM, an EC50 ([1]; read-out: EC50) of 160 nM and a CC50 at 4 day [2] greater than 100000 nM.
For COC(=O)Nc1ccc(-n2ccnc2[C@H](Cc2ccccc2)NC(=O)NS(=O)(=O)C(C)C)cc1 [Example 52, (S)-methyl (4-(2-(1-(3-(isopropylsulfonyl)ureido)-2-phenylethyl)-1H-imidazol-1-yl)phenyl)carbamate], the EC50 ([1]; read-out: Activity) was 100 to 1000 nM and the CC50 at 4 day [2] was greater than 100000 nM.
In the case of COC(=O)Nc1ccc(-n2ccnc2[C@H](Cc2ccccc2)NC(=O)NS(=O)(=O)C2CC2)cc1 [Example 53, (S)-methyl (4-(2-(1-(3-(cyclopropylsulfonyl)ureido)-2-phenylethyl)-1H-imidazol-1-yl)phenyl)carbamate], the EC50 ([1]; read-out: Activity) is reported as 100 to 1000 nM and the CC50 at 4 day [2] is reported as greater than 100000 nM.
For COC(=O)Nc1ccc(-n2ccnc2[C@H](Cc2ccccc2)NC(=O)NS(=O)(=O)c2cccc(Cl)c2)cc1 [Example 54, (S)-methyl (4-(2-(1-(3-((3-chlorophenyl)sulfonyl)ureido)-2-phenylethyl)-1H-imidazol-1-yl)phenyl)carbamate], the EC50 ([1]; read-out: Activity) was 100 to 1000 nM, the EC50 ([1]; read-out: EC50) was 150 nM and the CC50 at 4 day [2] was greater than 100000 nM.
COC(=O)Nc1ccc(-n2ccnc2[C@H](Cc2ccccc2)NC(=O)NS(=O)(=O)c2cc(Cl)sc2Cl)cc1 [Example 55, (S)-methyl (4-(2-(1-(3-((2,5-dichlorothiophen-3-yl)sulfonyl)ureido)-2-phenylethyl)-1H-imidazol-1-yl)phenyl)carbamate] showed an EC50 ([1]; read-out: Activity) of less than 100 nM and a CC50 at 4 day [2] greater than 100000 nM.
COc1ccc(-n2ccnc2[C@H](Cc2ccccc2)NC(=O)NS(=O)(=O)c2cccc(Cl)c2Cl)cc1 [Example 56, (S)-2,3-dichloro-N-((1-(1-(4-methoxyphenyl)-1H-imidazol-2-yl)-2-phenylethyl)carbamoyl)benzenesulfonamide] showed an EC50 ([1]; read-out: Activity) of less than 100 nM and a CC50 at 4 day [2] greater than 100000 nM.
With CCOc1ccc(-n2ccnc2[C@H](Cc2ccccc2)NC(=O)NS(=O)(=O)c2cccc(Cl)c2Cl)cc1 [Example 57, (S)-2,3-dichloro-N-((1-(1-(4-ethoxyphenyl)-1H-imidazol-2-yl)-2-phenylethyl)carbamoyl)benzenesulfonamide] the EC50 ([1]; read-out: Activity) was less than 100 nM, the EC50 ([1]; read-out: EC50) was 30 nM and the CC50 at 4 day [2] was greater than 100000 nM.
Work on COc1ccc(-n2ccnc2[C@H](Cc2ccccc2)NC(=O)NS(=O)(=O)c2ccccc2F)cc1 [Example 58, (S)-2-fluoro-N-((1-(1-(4-methoxyphenyl)-1H-imidazol-2-yl)-2-phenylethyl)carbamoyl)benzenesulfonamide] yielded an EC50 ([1]; read-out: Activity) of less than 100 nM and a CC50 at 4 day [2] greater than 33000 nM.
With Cc1ccccc1S(=O)(=O)NC(=O)N[C@@H](Cc1ccccc1)c1nccn1-c1ccc(-c2ccoc2)cc1 [Example 59, (S)-N-((1-(1-(4-(furan-3-yl)phenyl)-1H-imidazol-2-yl)-2-phenylethyl)carbamoyl)-2-methylbenzenesulfonamide] the EC50 ([1]; read-out: Activity) was less than 100 nM and the CC50 at 4 day [2] was greater than 33000 nM.
